From patent US9452159B2, “6-aminopyridine-3-ol derivatives or pharmaceutically acceptable salts thereof, and pharmaceutical composition containing same as active ingredients for preventing or treating diseases caused by angiogenesis” (Research Cooperation Foundation of Yeungnam University, priority 2011, dated 2016)

Experiments:
[1] = test system: Male Balb/c mice; test: Toxicity test, single oral administration; type: in vivo; conditions: once, 0.5 g/kg, 1 g/kg and 2 g/kg in 0.5% methylcellose, 7 days
Description: Male Balb/c mice were orally administered once with Compound 6a suspended in a 0.5% methylcellose solution, in a dosage of each of 0.5 g/kg, 1 g/kg, and 2 g/kg, and then, for 7 days, the survival rate and body weight of the mice were measured.
After the administration, the death, clinical symptoms, and body weight change of the mice were analyzed, and a hematological examination and a blood biochemical examination were performed. Then, the autopsy of the mice was performed, and abnormality of abdominal cavity organs and thoracic cavity organs was examined.

[2] = test system: ARPE-19 (adult retinal pigment epithelium-19) cell line; test: Macular degeneration risk factor-derived ROS scavenging ability; type: cell-based; conditions: compared to a control
Description: (§1) DCF-DA (2′,7′-dichlorofluorescein diacetate) was used to measure a VEGF-derived ROS scavenging ability in HUVEC cells. When ROS exists in cells, DCF-DA is oxidized into fluorescent DCF, thereby emitting green fluorescent light. 1×10^5 concentration of HUVEC was spread onto a 0.2% gelatin coated 8-well plate, and then incubated for 24 hours. The cells were pretreated with Compounds 6a or 6i for 3 hours and then, treated with VEGF for 15 minutes, and then, washed three times with PBS (pH 7.4), and then, 10 μM of DCF-DA was added to EBM-2 medium, which was then placed in dark condition for 30 minutes. Then, the cells were washed three times with PBS, and a degree of intracellular fluorescence was measured by using a fluorescent microscope.
The same experiment as used in Experimental Example 3 was performed, except that ARPE-19 (adult retinal pigment epithelium-19) cell line was treated with 4-hydroxynonenal (4-HNE) or angiotensin II (Ang II), which are macular degeneration risk factors, to identify ROS scavenging ability of Compound 6a.

[3] = test system: chorioallantoic membrane (CAM); test: Chorioallantoic membrane (CAM) assay, VEGF-derived angiogenesis; type: in vivo, chick
Description: To examine angiogenesis inhibiting effects in vivo, CAM assay was performed (Nguyen Metal., Microvascular Res., 47, pp 31-40, 1994). Hen's fertile eggs were incubated at a temperature of 37° C. and in relative humidity 55%, and on the 10th day after the incubation, an air sac site was punched by using a hypodermic needle (Greencross Medical Science Corp, Korea) to form a first hole, and then, a planar site of the fertile egg where a window was to be formed was punched to form a second hole. Air was removed through the first pore of the air sac site to allow the chorioallantoic membrane (CAM) to be separated from the shell of the fertile egg, and this site was cut by using a grinding wheel (Multipro 395JA, Dremel, Mexico) to form a window. […] Through the window, the filter disc was placed on blood vessels, which were then treated with the compounds each dissolved in dimethylsulfoxide (DMSO) and diluted with phosphate buffer solution (PBS) at various concentrations. 3 days after the treatment with the compounds, the CAM site with the filter disc placed thereon was separated, and then washed with a phosphate buffer solution, and an image thereof was obtained by using a stereomicroscope (Stemi SV6 stereomicroscope, Carl Zeiss, Germany) and image-Pro Plus software (Media Cybernetics; Silver Spring, Md., U.S.A.) to count the number of blood vessel branches, and the obtained results were assayed.

[4] = test system: HUVEC cells; test: VEGF-derived ROS scavenging ability (DCF-DA fluorescence); type: cell-based; conditions: HUVEC pretreated 3 hours, then VEGF 15 minutes, compared to VEGF, FIG. 5
Description: as §1

[5] = test system: A549 lung cancer cells; test: Oncogenesis-derived angiogenesis and tumor growth on CAM inoculated with A549 lung cancer cells; type: in vivo, chick; conditions: A549 cells 1.5×10^6 cell/CAM, various concentrations, five days after inoculation; FIG. 4
Description: Hen's fertile eggs were incubated, and on the 9th day, a window was formed in the same manner as in Experimental Example 1, and instead of a disc, A549 lung cancer cells were mixed with matrigel at a ratio of 1:1, and then the cells were treated with Compounds 6a and 6i and inoculated at a concentration of 1.5×10^6 cell/CAM. Five days after the inoculation, the CAM site where tumors developed was separated and washed with a phosphate buffer solution, and then, an image thereof was obtained by using a stereomicroscope (Stemi SV6 stereomicroscope, Carl Zeiss, Germany) and Image-Pro Plus software (Media Cybernetics; Silver Spring, Md., U.S.A.) to count the number of blood vessel branches, and the results were assayed.

Compound: Cc1nc(N)c(C)c(C)c1O [Compound 6a, 6-amino-2,4,5-trimethylpyridin-3-ol]
- body weight change, blood examination, blood biochemical examination, and autopsy results [1]: no toxicity change
- clinical symptoms [1]: did not have distinguishing clinical symptoms
- death [1]: did not die
- degree of intracellular fluorescence (ROS), 4-hydroxynonenal (4-HNE) ([2]; ARPE-19 treated with 4-HNE, FIG. 7): substantially decreased
- degree of intracellular fluorescence (ROS), angiotensin II (Ang II) ([2]; ARPE-19 treated with Ang II, FIG. 6): substantially decreased
- inhibition in vivo at 0.1 µM ([3]; Gallus gallus, 72 h, VEGF (50 ng/CAM) + 0.15 ng/CAM, 0.1 μM, 3 days after treatment, read-out: Inhibition ratio): 64 ± 8.8%
- inhibition in vivo at 1 µM ([3]; Gallus gallus, 72 h, VEGF (50 ng/CAM) + 1.5 ng/CAM, 1 μM, 3 days after treatment, read-out: Inhibition ratio): 76.3 ± 5.2%
- IC50 ([3]; Gallus gallus, CAM treated with various concentrations, FIG. 3, read-out: IC50 with respect to angiogenesis inhibition): 2 nM
- Number of blood vessel branches/main blood vessel ([3]; VEGF (50 ng/CAM) + 0.15 ng/CAM, 0.1 μM, 3 days after treatment): 28 ± 3.3^8
- Number of blood vessel branches/main blood vessel ([3]; VEGF (50 ng/CAM) + 1.5 ng/CAM, 1 μM, 3 days after treatment): 23.3 ± 2.0^8
- angiogenesis inhibiting effects ([3]; VEGF-treated CAM, summary of Table 1, 6a compared with SU4312, batimastat and α-tocopherol): excellent angiogenesis inhibiting effects even at low concentration
- degree of intracellular fluorescence (VEGF-derived ROS) [4]: substantial decrease
- oncogenesis-derived angiogenesis [5]: inhibited
- tumor growth [5]: inhibited
